The values below come from patent US20100105864A1, “PROPHYLACTIC OR THERAPEUTIC AGENT FOR DIARRHEA” (priority 2007, published 2010).

One test concerns Balb/c mice. The experiment in a line: Anticancer agent (5-FU)-induced diarrhea model. The format is in vivo. On the procedure: To each of Balb/c mice, an anticancer agent was administered to induce diarrhea, and γ-Glu-Val-Gly (hereinafter, referred to as “γEVG”) was studied for its inhibitory effect on diarrhea. To each of 6-week-old Balb/c mice fed with a low protein nutrient diet (4% casein diet) for 1 week, 5-FU (1 mg/animal/day) was intraperitoneally administered for consecutive 3 days. The diarrhea developed around Day 5 after the third administration of the anticancer agent, and the diarrhea appeared in all cases on Day 7. The presence or absence of diarrhea was determined based on the presence or absence of the stool in the tail head area. As the statistical test, a chi-square (χ^2) test for the control group (presence or absence of diarrhea) was employed, and p<0.05 was regarded as significant.
Each administration of 0.01% γEVG was started in free water intake at the same time as the first administration of the anticancer agent, and continued until completion of the experiment.
To each of Balb/c mice, an anticancer agent was administered to induce diarrhea, and a calcium receptor activator (hereinafter, referred to as “CaSR agonist”) was studied for its inhibitory effect on diarrhea. To each of 6-week-old Balb/c mice fed with a low protein nutrient diet (4% casein diet) for 1 week, 5-FU (1 mg/animal/day) was intraperitoneally administered for consecutive 3 days. The diarrhea developed around Day 5 after the third administration of the anticancer agent, and the diarrhea appeared in all cases on Day 7. The presence or absence of diarrhea was determined based on the presence or absence of the stool in the tail head area. As the statistical test, a chi-square (χ^2) test for the control group (presence or absence of diarrhea) was employed, and p<0.05 was regarded as significant.
The administration of the CaSR agonist was started in free water intake at the same time as the administration of the low protein nutrient diet, and continued until completion of the experiment.

For the next test, the system named is rat large intestine loop. The experiment in a line: Fluid absorption in rat large intestine loop method (PGE2-stimulated). The note with it: injected into loop 30 minutes after PGE2 i.p.; measured after 1 hour. Type of test: in vivo, rats. On the procedure: The cecum and large intestine were extirpated from the abdomen of each of male SD (IGS) rats under pentobarbital anesthesia, and the site 5 cm away from the area just under the cecum was ligated to form a large intestine loop Immediately after the loop had been formed, PGE2 (4 μg/ml/kg, SIGMA) was intraperitoneally administered, and after 30 minutes, a medicament, which had been dissolved in 2 ml of Tyrode's solution (NaCl: 136.9 mM, KCl: 2.7 mM, CaCl2.2H2O: 1.8 mM, MgCl2.6H2O: 1.04 mM, NaH2PO4.2H2O: 0.04 mM, NaH2PO4.2H2O: 0.04 mM, glucose: 5.55 mM, NaHCO3: 11.9 mM), was injected into the prepared loop (the medicament solution was adjusted so that the pH would be 6.5 to 7.5). As a control, Tyrode's solution free of any medicament (vehicle) was administered. After 1 hour, the loop weight, the loop weight after solution removal, and the loop area were measured to calculate a solution weight per unit area remaining in the loop.
The remaining solution amount per unit area was calculated with the following equation:
Remaining solution amount per unit area(g/cm^2)=(Loop weight−Loop weight after solution removal)/Loop area.
The fluid absorption was evaluated by calculating an inhibitory rate from the following equation:
Inhibitory rate(%)=100−(Remaining solution amount per unit area under drug administration−Remaining solution amount per unit area in base(average))/(Remaining solution amount per unit area under vehicle administration(average)−Remaining solution amount per unit area in base(average))×100.
(Base=case where no stimulation is given (no treatment with PGE2))

Marks after values point to notes of the source that are not given here. Starred links: 1 amine or outer side, 2 acyl side, 3 side chain; linkers in the order of their positions; H or OH if unused. Non-standard residues stand in square brackets, D forms with d. Residues, ends and D or L forms follow the SMILES beside them. γGlu = O=C(O)[C@H](CCC(=O)[*:2])N[*:1]; Tle = CC(C)(C)[C@H](N)C(=O)O

`C[C@@H](NCCCc1cccc(C(F)(F)F)c1)c1cccc2ccccc12` [cinacalcet, (R)—N-(3-(3-(trifluoromethyl)phenyl)propyl)-1-(1-naphthyl)ethylamine]: the “mice that did not exhibit the diarrhea symptom” value in the test on Balb/c mice (0.05% administration group, free water intake from start of low protein diet, control all 9/9 with diarrhea) is reported as 2 out of 5. The “Ratio of individuals that developed diarrhea” value in the test on Balb/c mice (0.5% in free water intake from start of low protein diet, control 9/9, p < 0.05 chi-square) is recorded as 3/5*. For the same molecule, the “fluid absorption (inhibitory rate from remaining solution amount per unit area)” value in the test with rat large intestine loop is “promoted fluid absorption”.
Regarding `CC(C)(C)[C@H](NC(=O)CC[C@H](N)C(=O)O)C(=O)NCC(=O)O` [γ-Glu-t-Leu-Gly] (γGlu-[Tle]-Gly-OH), in the test on rat large intestine loop, the “fluid absorption (inhibitory rate from remaining solution amount per unit area)” value is reported as “promoted fluid absorption”.
